Assay results from ChEMBL document CHEMBL1122827 (1985).
Active and inactive are the calls of the source. The rule behind the calls is not given here. Where a SMILES comes first, the peptide text is derived from it. The star is where a group is joined. Mob = COc1ccc(C*)cc1; Bn = c1ccc(C*)cc1

Assays:
Assay type in all cases: functional
[1] = organism: Cavia porcellus; assay: Relative affinity in guinea pig ileum(GPI) was determined
[2] = organism: Cavia porcellus; assay: Intrinsic activity in guinea pig ileum(GPI) was determined
[3] = organism: Cavia porcellus; assay: The concentration required to produce 50% of the maximal effect in guinea pig ileum(GPI)
[4] = organism: Cavia porcellus; assay: The concentration required to produce 50% of the maximal effect in guinea pig trachea(GPT) at 10e-4 M; Inactive
[5] = organism: Oryctolagus cuniculus; assay: The concentration required to produce 50% of the maximal effect in rabbit mesenteric vein(RMV) at 10e-4 M; Inactive
[6] = organism: Cavia porcellus; assay: Relative affinity in guinea pig trachea(GPT) was determined
[7] = organism: Cavia porcellus; assay: Intrinsic activity in guinea pig trachea(GPT) was determined
[8] = organism: Cavia porcellus; assay: The concentration required to produce 50% of the maximal effect in guinea pig trachea(GPT)
[9] = organism: Oryctolagus cuniculus; assay: Intrinsic activity in rabbit mesenteric vein(RMV) was determined
[10] = organism: Oryctolagus cuniculus; assay: Relative affinity in rabbit mesenteric vein(RMV) was determined
[11] = organism: Oryctolagus cuniculus; assay: The concentration required to produce 50% of the maximal effect in rabbit mesenteric vein(RMV)

## CC(C)C[C@@H]1NC(=O)CNC(=O)[C@H](Cc2ccccc2)NC(=O)[C@H](Cc2ccccc2)NC(=O)[C@@H](N)CSSC[C@@H](C(N)=O)NC1=O
[1]
  AR: 0.02
[2]
  Alpha E: 0.7
[3]
  pD2: 4.83

## CC(C)C[C@H]1NC(=O)CNC(=O)[C@@H](Cc2ccccc2)NC(=O)[C@H](Cc2ccccc2)NC(=O)[C@@H](N)CSSC[C@H](C(N)=O)NC1=O
[4]
  pD2: inactive
[5]
  pD2: inactive

## COc1ccc(CSC[C@H](N)C(=O)N[C@@H](CCC(N)=O)C(=O)N[C@@H](Cc2ccccc2)C(=O)N[C@@H](Cc2ccccc2)C(=O)NCC(=O)N[C@@H](CC(C)C)C(=O)N[C@@H](CSCc2ccccc2)C(N)=O)cc1 (H-C(Mob)QFFGLC(Bn)-NH2)
[1]
  AR: 0.8
[6]
  AR: 3
[7]
  Alpha E: 0.8
[2]
  Alpha E: 1.2
[3]
  pD2: 6.37
[8]
  pD2: 5.22
[9]
  Alpha E: 0.4
[10]
  AR: 2.8
[11]
  pD2: 5.98
